Literature values in patent US12239707B2, “Photodynamic compositions and methods of use” (MT RESEARCH, LLC, priority 2018, dated 2025).

Details: taken orally; 95% remains intraluminal

COC(=O)c1ccc2c(c1)NC(=O)/C2=C(\Nc1ccc(N(C)C(=O)CN2CCN(C)CC2)cc1)c1ccccc1 [nintedanib]
fraction of nintedanib absorbed: 5%
